Measured values from the NIST ThermoML archive (doi:10.1021/je2011055).
± gives the expanded uncertainty stated by the source.

Conditions: Liquid, Closed cell (Static) method

SMILES | vapor or sublimation pressure (258.15 K) [kPa] | vapor or sublimation pressure (268.15 K) [kPa] | vapor or sublimation pressure (278.15 K) [kPa] | vapor or sublimation pressure (288.15 K) [kPa]
CC(C)C [2-methylpropane] | 88.9 ± 1 | 130.8 ± 1.1 | 186.7 ± 1.1 | 258.7 ± 1.3
F/C=C/C(F)(F)F [trans-1,3,3,3-tetrafluoropropene] | 119.3 ± 1.1 | 178.4 ± 1.1 | 258.1 ± 1.3 | 362.8 ± 1.5
